Like-named read-outs stand apart in the source and are kept apart here.
How the values were obtained:
[1] = Solubility / stability in water; format: physicochemical; conditions: pure water, observed by eye
Description: For GC-22 and TFA-GC22, the glycosides alone are not soluble in pure water, while the micelles GC-22-NPs and TFA-GC22-NPs are stable in the aqueous phase. Precipitate of GC-22 and TFA-GC22 can be observed by eye straight away in a pure water solution and no re-dispersion is produced when the aqueous micellar solution is mixed with an organic solvent selected from the group consisting of dichloromethane, chloroform, hexane, heptane, toluene, in a volume proportion of 1:1.

[2] = system: C6 rat glioma cell line; assay: MTT assay, inhibition of C6 tumor cell proliferation; format: cell-based; conditions: for IC50: free glycoside derivative, 48 h treatment, MTT, read-out: ID50 (µM) C6
Procedure: (§1) Human A549 cell line and C6 rat glioma cell line were maintained in Dulbecco's modified Eagle's medium (DMEM) complete medium (Sigma-Aldrich, St. Louis, MO), supplemented with fetal bovine serum (FBS, 10%; GLinus, Madrid, Spain), glutamine (2 mM), penicillin (50 IU/mL), and streptomycin ([…]), at 37 °C in a 5% CO2 humidified atmosphere. Exponentially growing cells were seeded on 96-well plates (Beckton Dickinson, Le Pont de Claix, France), in DMEM complete medium, at a density of 1.5 x 10^4 cells/well for C6 cell and 5 x 10^3 cells/well for A549 cells respectively. The cells were allowed to attach with 5% of CO2 at 37°C for overnight, and then, to serum starve the cells, the medium was replaced by 100 µL of fresh DMEM without FBS and maintained overnight. Stock solutions in EtOH of the glycoside derivatives of formula (I) of Example 2 (50 mM) or stock solutions in PBS of the micelles of Example 3 were finally dissolved in DMEM complete medium for the treatments. The cells were treated with serial dilutions of glycoside derivatives of formula (I) of Example 2 or micelles of Example 3 for 48 h. For the experiments with micelles of Example 3, some 96-well plates were placed over a MagnetoFACTOR-96 device (Chemicell) to produce a strong magnetic field to each well and increase the proximity of the nanoparticles to the cells. Also, iron oxide nanoparticles coated with azelaic acid were tested (Azelaic-NP, obtained as described in Chemistry - A European Journal, 2008, 14 (30), 9126-9130) Cell proliferation was evaluated with an MTT assay (Sigma-Aldrich), based on the conversion of the water-soluble MTT into an insoluble formazan. Briefly, after 48 h of compound treatment, the medium was replaced by 100 µL of fresh DMEM without phenol red containing MTT (5 mg/mL) solution, and cells were incubated for additional 3 h at 37 °C with 5% CO2. After this time, the medium was removed, the precipitated formazan was dissolved in 100 µL of DMSO, and the solution optical density was measured at 595 nm in Spectramax Plus equipment (Molecular Devices Corporation). Absorption values were referred to positive proliferation controls (cells cultured in DMEM complete medium) and negative proliferation controls cells cultured in DMEM without FBS). Inhibition was expressed as an ID50 value, the compound concentration that reduced maximal proliferation by 50%, and the results are shown in Table 3. Table 3. Biological activity of glycoside derivatives of formula (I) and micelles comprising said glycoside derivatives.

[3] = system: A549 cell line; assay: MTT assay, inhibition of A549 tumor cell proliferation; format: cell-based, Human; conditions: 48 h treatment, read-out: ID50 (µM) A549
Procedure: as §1, with “Absorption values were referred to positive proliferation controls (cells cultured in DMEM complete medium) and negative proliferation controls cells cultured in DMEM without FBS). Inhibition was expressed as an ID50 value, the compound concentration that reduced maximal proliferation by 50%, and the results are shown in Table 3. Table 3. Biological activity of glycoside derivatives of formula (I) and micelles comprising said glycoside derivatives.” left out

[4] = Homo sapiens, A549, free glycoside derivative

Compound	solubility in water [1]	IC50 ([2]; Rattus norvegicus, Glioma cell)	IC50 [3, 4]	IC50 [2]	inhibition of proliferation of C6 tumor cells ([2]; result in words)	IC50 ([3]; free glycoside derivative)
CCCCCCCC/C=C\CCCCCCCCO[C@H]1O[C@H](CO)[C@@H](O)[C@H](O)[C@H]1NC(C)=O [GC22, Oleyl 2-acetamido-2-deoxy-α-D-glucopyranoside]	not soluble	15.5 ± 0.3 µM	10 µM	–	–	–
CCCCCCCC/C=C\CCCCCCCCO[C@H]1O[C@H](COS(=O)(=O)[O-])[C@@H](O)[C@H](O)[C@H]1NC(C)=O.[K+] [IG20, Oleyl 2-acetamido-2-deoxy-6-O-(oxosulfonyl)-α-D-glucopyranoside potassium salt]	soluble in water	–	–	> 100 µM	did not show inhibition	97 µM
CCCCCCCC/C=C\CCCCCCCCO[C@H]1O[C@H](CO)[C@@H](O)[C@H](O)[C@H]1NC(=O)C(F)(F)F [TFAGC22, Oleyl2-deoxy-2-trifluoroacetamido-α-D-glucopyranoside]	not soluble	14.2 ± 0.3 µM	8.6 µM	–	–	–

Source: patent publication EP2921179A1, “Micellar nanoparticles containing antitumoral glycosides” (Fundación Centro Nacional de Investigaciones …, priority 2014, dated 2015)
